Results on one compound are retold here after ChEMBL document CHEMBL4840379, “RIBOTACs: Small Molecules Selectively Destroy Cancer-Associated RNA” (ACS Med Chem Lett, 2021).

Calls of active or inactive are those of the source. No cut-off for these calls is given here.

Data set [1] in a line: Turnovers, ratio of RIBOTAC activity at Pre-miR-21 RNA/RNase L in human MDA-MB-231 cells assessed as decrease in pre-miR-21 level by measuring cleaved pre-miR-21 level at 500 nM incubated for 24 hrs […] to drug concentration in human MDA-MB-231 cells. Format: functional.
Data set [2] is described as follows: Drug uptake in human MDA-MB-231 cells assessed as compound level at 500 nM incubated for 24 hrs. The conditions noted are these: mda-mb-231, 24 h, 0.5 µM. Format: ADME, cell-based.
For a further data set, the system named is A549. As to the kind of experiment: Antiinvasive activity in human A549 cells assessed as decrease in pre-miR-21 overexpression induced invasion at 500 nM incubated for 24 hrs […]. It counts as functional, cell-based.
The subject of a further data set is A-375. As to the kind of experiment: Antiinvasive activity in human A-375 cells assessed as decrease in pre-miR-21 overexpression induced invasion at 500 nM incubated for 24 hrs […]. It counts as functional, cell-based.
In another data set the test system is microRNA 21. As to the kind of experiment: RIBOTAC activity at Pre-miR-21 RNA/RNase L in human MDA-MB-231 cells assessed as decrease in pre-miR-21 level by measuring cleaved pre-miR-21 level at 500 nM incubated for 24 hrs […]. It counts as cell-based.

As for `CCCN(CC(=O)N(CCC)CC(=O)N(CCC)CC(=O)N(CC(=O)NCCOCCOCCOCCOc1ccc(/C=C2\SC(Nc3ccccc3)=C(C(=O)OCC)C2=O)cc1O)Cc1cn(CCCNC(=O)CCCOc2ccc(-c3nc4ccc(-c5ccc(N6CCN(C)CC6)cc5)cc4[nH]3)cc2)nn1)C(=O)CN(Cc1cn(CCCNC(=O)CCCOc2ccc(-c3nc4cc(-c5ccc(N6CCN(C)CC6)cc5)ccc4[nH]3)cc2)nn1)C(C)=O`, the Ratio in data set [1] was determined as 26. Also, the Drug uptake in data set [2] stood at 2.6 pmol. In addition, the outcome in the data set with A549 and in the data set on A-375 was Active. The Activity in the data set on microRNA 21 came out at 68 pmol.
